Reference: PMC6409085, “Three odorant-binding proteins are involved in the behavioral response of Sogatella furcifera to rice plant volatiles” (PeerJ, 2019)
“And” between values parts separate entries of the source, which are not always exact repeats. Identical values can stand only once.

Legend:
SfurOBP1 = SfurOBP1 (Sogatella furcifera, UniProt V5T8N5); assay: biochemical; assay type: binding; details: for Fluorescence competitive binding assay, fluorescence intensity: OBP1, three replicate columns
Chain of SfurOBP1 (V5T8N5 entry or part of it): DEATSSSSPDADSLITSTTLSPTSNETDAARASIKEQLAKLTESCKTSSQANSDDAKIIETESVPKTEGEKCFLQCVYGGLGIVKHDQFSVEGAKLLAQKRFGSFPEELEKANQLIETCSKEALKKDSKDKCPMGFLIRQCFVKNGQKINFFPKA
In short: (§1)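 Fluorescence competitive binding with 1-NPN as reporter: 2.0 µM protein and 2.0 µM 1-NPN in 50 mM Tris-HCl pH 7.4, odorant added at 2–20 µM final. Excitation 337 nm, emission 390–490 nm read 2 min after addition, triplicates. Ki = IC50/(1 + [1-NPN]/K1-NPN).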

SfurOBP11 = SfurOBP11 (Sogatella furcifera, UniProt V5T6E3); assay: biochemical; assay type: binding
Chain of SfurOBP11 (V5T6E3 entry or part of it): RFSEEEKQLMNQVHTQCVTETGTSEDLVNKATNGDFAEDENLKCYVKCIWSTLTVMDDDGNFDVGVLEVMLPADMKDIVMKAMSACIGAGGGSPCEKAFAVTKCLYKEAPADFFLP
In short: as §1

SfurOBP3 = SfurOBP3 (Sogatella furcifera, UniProt V5T818); assay: biochemical; assay type: binding; details: for Fluorescence competitive binding assay, fluorescence intensity: OBP3, three replicate columns
Chain of SfurOBP3 (V5T818 entry or part of it): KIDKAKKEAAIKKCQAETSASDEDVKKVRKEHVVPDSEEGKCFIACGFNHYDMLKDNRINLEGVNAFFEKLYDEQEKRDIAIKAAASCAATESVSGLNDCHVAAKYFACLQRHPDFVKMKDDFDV
In short: as §1

SfurOBP2 = SfurOBP2 (Sogatella furcifera, UniProt V5T759); assay: biochemical; assay type: binding
Chain of SfurOBP2 (V5T759 entry or part of it): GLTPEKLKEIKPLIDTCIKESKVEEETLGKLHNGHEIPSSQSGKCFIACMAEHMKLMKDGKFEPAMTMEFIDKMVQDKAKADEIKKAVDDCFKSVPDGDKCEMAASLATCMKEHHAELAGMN
In short: as §1

S. furcifera adults = assay: Y-tube olfactometer behavioral trials; assay type: in vivo, Sogatella furcifera; details: odorant 50 µL/L vs hexane
In short: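 Single S. furcifera adults (2 days post-emergence, starved 0.5 h) chose between odorant (100 µL of 50 µL/L on filter paper) and hexane control in a glass Y-tube, charcoal-filtered humidified air 300 mL/min per arm, 25 ± 1 °C, 50% RH. Choice scored if insect passed half an arm and stayed >1 min within 10 min; 45 insects per compound, chi-squared test.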

## CCCCCCCCCCC [n-hendecane]
SfurOBP1; ligand concentration 2 (μM)
  Fluorescence competitive binding assay, fluorescence intensity: 8889 and 7931 and 9847
SfurOBP1; ligand concentration 4 (μM)
  Fluorescence competitive binding assay, fluorescence intensity: 9154 and 8432 and 9875
SfurOBP1; ligand concentration 6 (μM)
  Fluorescence competitive binding assay, fluorescence intensity: 7581 and 8720 and 8173
SfurOBP1; ligand concentration 8 (μM)
  Fluorescence competitive binding assay, fluorescence intensity: 8276 and 7641 and 8381
SfurOBP1; ligand concentration 10 (μM)
  Fluorescence competitive binding assay, fluorescence intensity: 7644 and 8267 and 8233
SfurOBP1; ligand concentration 12 (μM)
  Fluorescence competitive binding assay, fluorescence intensity: 8969 and 10263 and 9250
SfurOBP1; ligand concentration 14 (μM)
  Fluorescence competitive binding assay, fluorescence intensity: 8392 and 9042 and 10874
SfurOBP1; ligand concentration 16 (μM)
  Fluorescence competitive binding assay, fluorescence intensity: 8482 and 9466 and 8778
SfurOBP1; ligand concentration 18 (μM)
  Fluorescence competitive binding assay, fluorescence intensity: 11781 and 12671 and 12573
SfurOBP1; ligand concentration 20 (μM)
  Fluorescence competitive binding assay, fluorescence intensity: 13259 and 11367 and 9255
SfurOBP1; SfurOBP1, protein and 1-NPN both 2.0 µM, competitor 2-20 µM, read-out: IC50
  IC50: > 20 µM
SfurOBP11; SfurOBP11, protein and 1-NPN both 2.0 µM, competitor 2-20 µM, read-out: IC50
  IC50: > 20 µM
SfurOBP11; ligand concentration 2, replicate 1
  Fluorescence intensity, fluorescence competitive binding assay, OBP11: 27436
SfurOBP11; ligand concentration 2, replicate 2
  Fluorescence intensity, fluorescence competitive binding assay, OBP11: 25403
SfurOBP11; ligand concentration 2, replicate 3
  Fluorescence intensity, fluorescence competitive binding assay, OBP11: 32188
SfurOBP11; ligand concentration 4, replicate 1
  Fluorescence intensity, fluorescence competitive binding assay, OBP11: 29413
SfurOBP11; ligand concentration 4, replicate 2
  Fluorescence intensity, fluorescence competitive binding assay, OBP11: 28026
SfurOBP11; ligand concentration 4, replicate 3
  Fluorescence intensity, fluorescence competitive binding assay, OBP11: 33638
SfurOBP11; ligand concentration 6, replicate 1
  Fluorescence intensity, fluorescence competitive binding assay, OBP11: 33021
SfurOBP11; ligand concentration 6, replicate 2
  Fluorescence intensity, fluorescence competitive binding assay, OBP11: 33682
SfurOBP11; ligand concentration 6, replicate 3
  Fluorescence intensity, fluorescence competitive binding assay, OBP11: 34343
SfurOBP11; ligand concentration 8, replicate 1
  Fluorescence intensity, fluorescence competitive binding assay, OBP11: 31948
SfurOBP11; ligand concentration 8, replicate 2
  Fluorescence intensity, fluorescence competitive binding assay, OBP11: 30771
SfurOBP11; ligand concentration 8, replicate 3
  Fluorescence intensity, fluorescence competitive binding assay, OBP11: 33124
SfurOBP11; ligand concentration 10, replicate 1
  Fluorescence intensity, fluorescence competitive binding assay, OBP11: 30756
SfurOBP11; ligand concentration 10, replicate 2
  Fluorescence intensity, fluorescence competitive binding assay, OBP11: 30287
SfurOBP11; ligand concentration 10, replicate 3
  Fluorescence intensity, fluorescence competitive binding assay, OBP11: 30522
SfurOBP11; ligand concentration 12, replicate 1
  Fluorescence intensity, fluorescence competitive binding assay, OBP11: 29262
SfurOBP11; ligand concentration 12, replicate 2
  Fluorescence intensity, fluorescence competitive binding assay, OBP11: 31182
SfurOBP11; ligand concentration 12, replicate 3
  Fluorescence intensity, fluorescence competitive binding assay, OBP11: 32197
SfurOBP11; ligand concentration 14, replicate 1
  Fluorescence intensity, fluorescence competitive binding assay, OBP11: 28697
SfurOBP11; ligand concentration 14, replicate 2
  Fluorescence intensity, fluorescence competitive binding assay, OBP11: 28336
SfurOBP11; ligand concentration 14, replicate 3
  Fluorescence intensity, fluorescence competitive binding assay, OBP11: 31391
SfurOBP11; ligand concentration 16, replicate 1
  Fluorescence intensity, fluorescence competitive binding assay, OBP11: 26235
SfurOBP11; ligand concentration 16, replicate 2
  Fluorescence intensity, fluorescence competitive binding assay, OBP11: 27774
SfurOBP11; ligand concentration 16, replicate 3
  Fluorescence intensity, fluorescence competitive binding assay, OBP11: 27525
SfurOBP11; ligand concentration 18, replicate 1
  Fluorescence intensity, fluorescence competitive binding assay, OBP11: 34849
SfurOBP11; ligand concentration 18, replicate 2
  Fluorescence intensity, fluorescence competitive binding assay, OBP11: 34941
SfurOBP11; ligand concentration 18, replicate 3
  Fluorescence intensity, fluorescence competitive binding assay, OBP11: 33114
SfurOBP11; ligand concentration 20, replicate 1
  Fluorescence intensity, fluorescence competitive binding assay, OBP11: 29304
SfurOBP11; ligand concentration 20, replicate 2
  Fluorescence intensity, fluorescence competitive binding assay, OBP11: 30167
SfurOBP11; ligand concentration 20, replicate 3
  Fluorescence intensity, fluorescence competitive binding assay, OBP11: 28561
SfurOBP3; ligand concentration 2
  Fluorescence competitive binding assay, fluorescence intensity: 74152 and 72365 and 72059
SfurOBP3; ligand concentration 4
  Fluorescence competitive binding assay, fluorescence intensity: 77402 and 81799 and 77600
SfurOBP3; ligand concentration 6
  Fluorescence competitive binding assay, fluorescence intensity: 79862 and 82180 and 72867
SfurOBP3; ligand concentration 8
  Fluorescence competitive binding assay, fluorescence intensity: 73959 and 76680 and 68556
SfurOBP3; ligand concentration 10
  Fluorescence competitive binding assay, fluorescence intensity: 74938 and 80983 and 75877
SfurOBP3; ligand concentration 12
  Fluorescence competitive binding assay, fluorescence intensity: 71318 and 75448 and 71285
SfurOBP3; ligand concentration 14
  Fluorescence competitive binding assay, fluorescence intensity: 70629 and 72724 and 74851
SfurOBP3; ligand concentration 16
  Fluorescence competitive binding assay, fluorescence intensity: 63137 and 66714 and 63682
SfurOBP3; ligand concentration 18
  Fluorescence competitive binding assay, fluorescence intensity: 73714 and 82385 and 76604
SfurOBP3; ligand concentration 20
  Fluorescence competitive binding assay, fluorescence intensity: 75970 and 66519 and 62854
SfurOBP3; SfurOBP3, protein and 1-NPN both 2.0 µM, competitor 2-20 µM, read-out: IC50
  IC50: > 20 µM
SfurOBP2; SfurOBP2, protein and 1-NPN both 2.0 µM, competitor 2-20 µM, read-out: IC50
  IC50: > 20 µM
SfurOBP2; ligand concentration 2 (unit not given), replicate column 1 of 3
  Fluorescence competitive binding assay, OBP2 (raw fluorescence reading): 13775
SfurOBP2; ligand concentration 2 (unit not given), replicate column 2 of 3
  Fluorescence competitive binding assay, OBP2 (raw fluorescence reading): 13769
SfurOBP2; ligand concentration 2 (unit not given), replicate column 3 of 3
  Fluorescence competitive binding assay, OBP2 (raw fluorescence reading): 13734
SfurOBP2; ligand concentration 4 (unit not given), replicate column 1 of 3
  Fluorescence competitive binding assay, OBP2 (raw fluorescence reading): 13631
SfurOBP2; ligand concentration 4 (unit not given), replicate column 2 of 3
  Fluorescence competitive binding assay, OBP2 (raw fluorescence reading): 13783
SfurOBP2; ligand concentration 4 (unit not given), replicate column 3 of 3
  Fluorescence competitive binding assay, OBP2 (raw fluorescence reading): 13500
SfurOBP2; ligand concentration 6 (unit not given), replicate column 1 of 3
  Fluorescence competitive binding assay, OBP2 (raw fluorescence reading): 14480
SfurOBP2; ligand concentration 6 (unit not given), replicate column 2 of 3
  Fluorescence competitive binding assay, OBP2 (raw fluorescence reading): 14028
SfurOBP2; ligand concentration 6 (unit not given), replicate column 3 of 3
  Fluorescence competitive binding assay, OBP2 (raw fluorescence reading): 13866
SfurOBP2; ligand concentration 8 (unit not given), replicate column 1 of 3
  Fluorescence competitive binding assay, OBP2 (raw fluorescence reading): 14049
SfurOBP2; ligand concentration 8 (unit not given), replicate column 2 of 3
  Fluorescence competitive binding assay, OBP2 (raw fluorescence reading): 14101
SfurOBP2; ligand concentration 8 (unit not given), replicate column 3 of 3
  Fluorescence competitive binding assay, OBP2 (raw fluorescence reading): 13901
SfurOBP2; ligand concentration 10 (unit not given), replicate column 1 of 3
  Fluorescence competitive binding assay, OBP2 (raw fluorescence reading): 14583
SfurOBP2; ligand concentration 10 (unit not given), replicate column 2 of 3
  Fluorescence competitive binding assay, OBP2 (raw fluorescence reading): 14099
SfurOBP2; ligand concentration 10 (unit not given), replicate column 3 of 3
  Fluorescence competitive binding assay, OBP2 (raw fluorescence reading): 14077
SfurOBP2; ligand concentration 12 (unit not given), replicate column 1 of 3
  Fluorescence competitive binding assay, OBP2 (raw fluorescence reading): 12819
SfurOBP2; ligand concentration 12 (unit not given), replicate column 2 of 3
  Fluorescence competitive binding assay, OBP2 (raw fluorescence reading): 13447
SfurOBP2; ligand concentration 12 (unit not given), replicate column 3 of 3
  Fluorescence competitive binding assay, OBP2 (raw fluorescence reading): 13211
SfurOBP2; ligand concentration 14 (unit not given), replicate column 1 of 3
  Fluorescence competitive binding assay, OBP2 (raw fluorescence reading): 12583
SfurOBP2; ligand concentration 14 (unit not given), replicate column 2 of 3
  Fluorescence competitive binding assay, OBP2 (raw fluorescence reading): 13279
SfurOBP2; ligand concentration 14 (unit not given), replicate column 3 of 3
  Fluorescence competitive binding assay, OBP2 (raw fluorescence reading): 13266
SfurOBP2; ligand concentration 16 (unit not given), replicate column 1 of 3
  Fluorescence competitive binding assay, OBP2 (raw fluorescence reading): 12291
SfurOBP2; ligand concentration 16 (unit not given), replicate column 2 of 3
  Fluorescence competitive binding assay, OBP2 (raw fluorescence reading): 12273
SfurOBP2; ligand concentration 16 (unit not given), replicate column 3 of 3
  Fluorescence competitive binding assay, OBP2 (raw fluorescence reading): 12414
SfurOBP2; ligand concentration 18 (unit not given), replicate column 1 of 3
  Fluorescence competitive binding assay, OBP2 (raw fluorescence reading): 15293
SfurOBP2; ligand concentration 18 (unit not given), replicate column 2 of 3
  Fluorescence competitive binding assay, OBP2 (raw fluorescence reading): 14599
SfurOBP2; ligand concentration 18 (unit not given), replicate column 3 of 3
  Fluorescence competitive binding assay, OBP2 (raw fluorescence reading): 14178
SfurOBP2; ligand concentration 20 (unit not given), replicate column 1 of 3
  Fluorescence competitive binding assay, OBP2 (raw fluorescence reading): 14271
SfurOBP2; ligand concentration 20 (unit not given), replicate column 2 of 3
  Fluorescence competitive binding assay, OBP2 (raw fluorescence reading): 14231
SfurOBP2; ligand concentration 20 (unit not given), replicate column 3 of 3
  Fluorescence competitive binding assay, OBP2 (raw fluorescence reading): 15281
S. furcifera adults
  behavioral response of S. furcifera (in words): strongly attracted
S. furcifera adults; adults
  number of insects choosing hexane arm: 8
  number of insects choosing volatilies arm: 18
  number of insects failed (no choice): 14
